Results taken from ChEMBL document CHEMBL3621068, “Synthesis and biological evaluation of a new class of quinazolinoneazoles as potential antimicrobial agents and their interactions with calf thymus DNA and human serum albumin” (Medchemcomm, 2015).
Values after ≈ are worked out from the molar mass of the structure shown. Active and inactive are the calls of the source. The rule behind the calls is not given here.

Experiments:
Staphylococcus aureus [1] = experiment: Antibacterial activity against methicillin-resistant Staphylococcus aureus N315 after 24 hrs by micro broth dilution assay; format: functional; settings: N315, 24 h
Escherichia coli = experiment: Antibacterial activity against Escherichia coli DH52 after 24 hrs by micro broth dilution assay; format: functional; settings: DH52, 24 h
Bacillus sp. = experiment: Antibacterial activity against Bacillus proteus ATCC 13315 after 24 hrs by micro broth dilution assay; format: functional; settings: Bacillus sp. (in: firmicutes), ATCC 13315, 24 h
Bacillus spizizenii [2] = experiment: Antibacterial activity against Bacillus subtilis ATCC 6633 after 24 hrs by micro broth dilution assay; format: functional; settings: ATCC 6633, 24 h
Aspergillus flavus [3] = experiment: Antifungal activity against Aspergillus flavus ATCC 204304 after 24 hrs by micro broth dilution assay; format: functional; settings: ATCC 204304, 24 h
Bacillus spizizenii [4] = experiment: Ratio of chloromycin MIC to compound MIC for Bacillus subtilis ATCC 6633; format: functional
[5] = Antibacterial activity against Eberthella typhosa ATCC 14028 after 24 hrs by micro broth dilution assay; format: functional; settings: ATCC 14028, 24 h
Saccharomyces cerevisiae = experiment: Antifungal activity against Beer yeast ATCC 9763 after 24 hrs by micro broth dilution assay; format: functional; settings: ATCC 9763, 24 h
Micrococcus luteus = experiment: Antibacterial activity against Micrococcus luteus ATCC 4698 after 24 hrs by micro broth dilution assay; format: functional; settings: ATCC 4698, 24 h
Candida = experiment: Antifungal activity against Candida mycoderma ATCC 9888 after 24 hrs by micro broth dilution assay; format: functional; settings: ATCC 9888, 24 h
Pseudomonas aeruginosa = experiment: Antibacterial activity against Pseudomonas aeruginosa ATCC 27853 a after 24 hrs by micro broth dilution assay; format: functional; settings: ATCC 27853, 24 h
Candida albicans = experiment: Antifungal activity against Candida albicans ATCC 10231 after 24 hrs by micro broth dilution assay; format: functional; settings: ATCC 10231, 24 h
Cyberlindnera jadinii = experiment: Antifungal activity against Candida utilis ATCC 9950 after 24 hrs by micro broth dilution assay; format: functional; settings: Williopsis jadinii, ATCC 9950, 24 h
Staphylococcus aureus [6] = experiment: Antibacterial activity against Staphylococcus aureus ATCC 25923 after 24 hrs by micro broth dilution assay; format: functional; settings: ATCC 25923, 24 h
Albumin = Albumin (Homo sapiens, UniProt P02768); experiment: Binding affinity to human serum albumin assessed as fluorescence quenching at 10^-5 mol/L by fluorescence spectroscopy analysis; format: ADME; settings: isolated protein, 10 µM
Albumin, sequence (P02768 whole entry): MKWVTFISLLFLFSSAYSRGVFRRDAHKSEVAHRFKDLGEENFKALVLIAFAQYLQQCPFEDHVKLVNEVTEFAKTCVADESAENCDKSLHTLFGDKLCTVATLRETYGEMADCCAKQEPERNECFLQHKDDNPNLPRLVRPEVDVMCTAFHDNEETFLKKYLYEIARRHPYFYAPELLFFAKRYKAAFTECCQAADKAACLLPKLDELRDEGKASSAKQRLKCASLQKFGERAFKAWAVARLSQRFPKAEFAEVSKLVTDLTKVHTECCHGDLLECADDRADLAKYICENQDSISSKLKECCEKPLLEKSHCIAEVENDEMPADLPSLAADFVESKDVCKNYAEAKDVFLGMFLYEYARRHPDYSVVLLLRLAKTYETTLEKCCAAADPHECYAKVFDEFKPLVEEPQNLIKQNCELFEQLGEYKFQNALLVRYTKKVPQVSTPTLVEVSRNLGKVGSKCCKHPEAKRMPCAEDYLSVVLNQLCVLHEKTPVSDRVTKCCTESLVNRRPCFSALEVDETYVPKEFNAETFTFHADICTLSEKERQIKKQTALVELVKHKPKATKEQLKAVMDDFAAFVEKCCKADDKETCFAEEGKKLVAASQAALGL

Calf thymus DNA [7] = experiment: Competitive binding affinity to calf thymus DNA using neutral red up to 2.0 x 10^-5 mol/L by UV-visible absorption spectroscopy; format: nucleic-acid assay; settings: Bos taurus
Calf thymus DNA [8] = experiment: Binding affinity to calf thymus DNA by UV-visible absorption spectroscopy; format: nucleic-acid assay; settings: Bos taurus
Aspergillus flavus [9] = experiment: Ratio of fluconazole MIC to compound MIC for Aspergillus flavus ATCC 204304; format: functional

SMILES | MIC (Staphylococcus aureus [1]) [µM] | MIC (Escherichia coli) [µM] | MIC (Bacillus sp.) [µM] | MIC (Bacillus spizizenii [2]) [µM] | MIC (Aspergillus flavus [3]) [µM] | Ratio (Bacillus spizizenii [4]) | MIC [5] [µM] | MIC (Saccharomyces cerevisiae) [µM] | MIC (Micrococcus luteus) [µM] | MIC (Candida) [µM] | MIC (Pseudomonas aeruginosa) [µM] | MIC (Candida albicans) [µM] | MIC (Cyberlindnera jadinii) [µM] | MIC (Staphylococcus aureus [6]) [µM] | Kq (Albumin) [×10¹² L/mol/s] | Activity (Calf thymus DNA [7]) | K (Calf thymus DNA [8]) [×10⁴ L/mol] | Ratio (Aspergillus flavus [9])
O=c1c2ccc(F)cc2ncn1CCCCCn1cnc([N+](=O)[O-])c1 | 190 (≈ 65.6 µg/mL) | 370 (≈ 128 µg/mL) | 370 (≈ 128 µg/mL) | 20 (≈ 6.91 µg/mL) | 740 (≈ 256 µg/mL) | 5 | 370 (≈ 128 µg/mL) | 90 (≈ 31.1 µg/mL) | 50 (≈ 17.3 µg/mL) | 190 (≈ 65.6 µg/mL) | 370 (≈ 128 µg/mL) | 90 (≈ 31.1 µg/mL) | 370 (≈ 128 µg/mL) | 190 (≈ 65.6 µg/mL) |  |  |  | 
O=c1c2ccc(F)cc2ncn1CCCCCCCCCCn1cnc([N+](=O)[O-])c1 | 150 (≈ 62.3 µg/mL) | 150 (≈ 62.3 µg/mL) | 80 (≈ 33.2 µg/mL) | 20 (≈ 8.31 µg/mL) | 150 (≈ 62.3 µg/mL) | 5 | 310 (≈ 129 µg/mL) | 80 (≈ 33.2 µg/mL) | 40 (≈ 16.6 µg/mL) | 40 (≈ 16.6 µg/mL) | 80 (≈ 33.2 µg/mL) | 40 (≈ 16.6 µg/mL) | 150 (≈ 62.3 µg/mL) | 310 (≈ 129 µg/mL) |  |  |  | 
Cc1ncc([N+](=O)[O-])n1CCn1cnc2cc(F)ccc2c1=O | 30 (≈ 9.52 µg/mL) | 30 (≈ 9.52 µg/mL) | 50 (≈ 15.9 µg/mL) | 30 (≈ 9.52 µg/mL) | 30 (≈ 9.52 µg/mL) |  | 30 (≈ 9.52 µg/mL) | 30 (≈ 9.52 µg/mL) | 50 (≈ 15.9 µg/mL) | 30 (≈ 9.52 µg/mL) | > 1610 | 30 (≈ 9.52 µg/mL) | 30 (≈ 9.52 µg/mL) | 30 (≈ 9.52 µg/mL) | 0.1 | Active | 1.41 | 
Cc1ncc([N+](=O)[O-])n1CCCCCCn1cnc2cc(F)ccc2c1=O | 40 (≈ 14.9 µg/mL) | 40 (≈ 14.9 µg/mL) | 40 (≈ 14.9 µg/mL) | 20 (≈ 7.47 µg/mL) | 10 (≈ 3.73 µg/mL) |  | 20 (≈ 7.47 µg/mL) | 40 (≈ 14.9 µg/mL) | 40 (≈ 14.9 µg/mL) | 20 (≈ 7.47 µg/mL) | > 1370 | 20 (≈ 7.47 µg/mL) | 20 (≈ 7.47 µg/mL) | 40 (≈ 14.9 µg/mL) |  |  |  | 84
O=c1c2ccc(F)cc2ncn1CCn1cncn1 | 490 (≈ 127 µg/mL) | 250 (≈ 64.8 µg/mL) | 990 (≈ 257 µg/mL) | 490 (≈ 127 µg/mL) | 990 (≈ 257 µg/mL) |  | 990 (≈ 257 µg/mL) | 490 (≈ 127 µg/mL) | 30 (≈ 7.78 µg/mL) | 490 (≈ 127 µg/mL) | 30 (≈ 7.78 µg/mL) | 990 (≈ 257 µg/mL) | 990 (≈ 257 µg/mL) | 990 (≈ 257 µg/mL) |  |  |  | 
O=c1c2ccc(F)cc2ncn1CCCCn1cnc([N+](=O)[O-])c1 | 190 (≈ 62.9 µg/mL) | 770 (≈ 255 µg/mL) | 390 (≈ 129 µg/mL) | 50 (≈ 16.6 µg/mL) | 770 (≈ 255 µg/mL) |  | 390 (≈ 129 µg/mL) | 100 (≈ 33.1 µg/mL) | 50 (≈ 16.6 µg/mL) | 770 (≈ 255 µg/mL) | 770 (≈ 255 µg/mL) | 100 (≈ 33.1 µg/mL) | 390 (≈ 129 µg/mL) | 390 (≈ 129 µg/mL) |  |  |  | 
O=c1c2ccc(Cl)cc2ncn1CCCCCCCCCCBr | 640 (≈ 256 µg/mL) | 640 (≈ 256 µg/mL) | 320 (≈ 128 µg/mL) | 1280 (≈ 512 µg/mL) | > 1280 |  | > 1280 | 640 (≈ 256 µg/mL) | 320 (≈ 128 µg/mL) | > 1280 | > 1280 | > 1280 | 320 (≈ 128 µg/mL) | > 1280 |  |  |  | 
O=c1c2ccc(F)cc2ncn1CCn1ccnc1 | 990 (≈ 256 µg/mL) | 1980 (≈ 511 µg/mL) | 1980 (≈ 511 µg/mL) | > 1980 | 500 (≈ 129 µg/mL) |  | > 1980 | 500 (≈ 129 µg/mL) | 500 (≈ 129 µg/mL) | > 1980 | 990 (≈ 256 µg/mL) | 990 (≈ 256 µg/mL) | 990 (≈ 256 µg/mL) | > 1980 |  |  |  | 
